{"source": "patent US12150939B2", "about": "“Therapeutic drug for ectopic ossification having mechanism to inhibit PAR1” (NATIONAL UNIVERSITY CORPORATION KUMAMOTO UNIVERSITY, priority 2015, dated 2024)", "molecules": {"B1": {"name": "BMP6: bone morphogenetic protein used as osteogenic stimulus (protein, UniProt P22004 375-513, looked up)", "Bone morphogenetic protein 6": "SASSRRRQQSRNRSTQSQDVARVSSASDYNSSELKTACRKHELYVSFQDLGWQDWIIAPKGYAANYCDGECSFPLNAHMNATNHAIVQTLVHLMNPEYVPKPCCAPTKLNAISVLYFDDNSNVILKKYRNMVVRACGCH"}}, "key": {"[1]": {"test_system": "FOP-derived fibroblasts", "experiment": "Differentiation of FOP-derived fibroblasts to osteoblasts in the absence of serum when using each inhibitor (ALP immunostaining and ALP activity)", "format": "cell-based, human", "conditions": "BMP6 and TFLLR stimulation"}, "[2]": {"test_system": "NOG mice", "experiment": "Ectopic ossification in teratomas from FOP patient iPS cells implanted into testicle of NOG mice, PAR1 inhibitor (CT)", "format": "in vivo", "conditions": "0.2 mg/kg/day intraperitoneally once daily from 9 weeks after implantation"}, "[3]": {"test_system": "normal subject-derived fibroblasts", "experiment": "PAR1 mRNA expression by BMP6 stimulation in the presence of serum (qPCR), normal subject-derived fibroblasts", "format": "cell-based, human", "conditions": "BMP6 50 ng/mL, over time", "procedure": "(§1) • (1) Fibroblasts were created from skin biopsy explants from FOP patients and normal subjects under informed consent by a protocol approved by Ethics committee. • (2) Skin samples from patients and from normal subjects were finely cut and cultured in DMEM medium supplemented with 10% fetal bovine serum (FBS). • (3) After emergence of fibroblasts was observed, the fibroblasts were grown to introduce a reprogramming gene. The grown fibroblasts were then put in a solution for freezing containing 10% DMSO+90% FBS and cryopreserved. <2. […] Intensity of bands was evaluated by Image J software (NIH, USA). • (4) In immunoprecipitation, 293T cells in which Smads were overexpressed, and KDM6B or LSD1 were lysed in RIPA buffer (50 mM Tris-HCl, pH 7.4, 1 mM EDTA, 150 mM NaCl, 1% NP-40, protease/phosphatase inhibitor cocktail). […]"}, "[4]": {"test_system": "FOP-derived fibroblasts", "experiment": "PAR1 mRNA expression by BMP6 stimulation in the presence of serum (qPCR), FOP-derived fibroblasts", "format": "cell-based, human", "conditions": "BMP6 50 ng/mL, over time, compared to normal subject-derived fibroblasts", "procedure": "as §1"}, "[5]": {"test_system": "FOP-derived fibroblasts", "experiment": "Differentiation of FOP-derived fibroblasts to osteoblasts by BMP6 / TFLLR stimulation in the absence of serum (ALP immunostaining and ALP activity)", "format": "cell-based, human", "conditions": "single stimulus", "procedure": "as §1"}}, "data": [{"molecule": "CC(C)c1ccc(Cn2ccc3c4c(N)nc(NC5CC5)nc4ccc32)cc1", "note": "[SCH79797, N3-cyclopropyl-7-[[4-(1-methylethyl)phenyl]methyl]-7H-pyrrolo[3,2-f]quinazoline-1,3-diamine]", "values": [{"measurement": "ALP activity", "setting": "[1]; 200 nM", "result": "largely decreased"}, {"measurement": "ALP expression (immunostaining)", "setting": "[1]; 200 nM", "result": "largely decreased"}]}, {"molecule": "CCOC(=O)N[C@@H]1CC[C@@H]2[C@@H](C1)C[C@H]1C(=O)O[C@H](C)[C@H]1[C@H]2/C=C/c1ccc(-c2cccc(F)c2)cn1", "note": "[Vorapaxar, ethyl [(1R,3aR,4aR,6R,8aR,9S,9aS)-9-{(1E)-2-[5-(3-fluorophenyl)pyridin-2-yl]ethen-1-yl}-1-methyl-3-oxododecahydronaphtho[2,3-c]furan-6-yl]carbamate]", "values": [{"measurement": "bone volume in the teratomas relative to vehicle", "setting": "[2]", "result": "about one third"}, {"measurement": "teratoma volume calculated from CT images versus vehicle", "setting": "[2]", "result": "a significant difference in the teratoma volume was not observed"}, {"measurement": "bones found in the teratomas (CT images) versus vehicle", "setting": "[2]; after 2 weeks of administration", "result": "notably less"}, {"measurement": "ALP activity", "setting": "[1]; 1 μM", "result": "largely decreased"}, {"measurement": "ALP expression (immunostaining)", "setting": "[1]; 1 μM", "result": "largely decreased"}]}, {"molecule": "B1", "values": [{"measurement": "mRNA expression level of PAR1", "setting": "[3]", "result": "significantly increased"}, {"measurement": "mRNA expression level of PAR1", "setting": "[4]", "result": "remarkable increase"}, {"measurement": "ALP activity compared to control", "setting": "[5]", "result": "significantly increased"}, {"measurement": "ALP expression (immunostaining)", "setting": "[5]", "result": "observed"}]}]}
